Assay results from US7410998B2, “Inhibitors of NADH:ubiquinone oxidoreductase” (The Scripps Research Institute, priority 2000, dated 2008).

What was measured:
[1] = target: NADH:ubiquinone oxidoreductase (Complex I) (Bos taurus, UniProt P03887+P17694+P42026); experiment: inhibitory potency for NADH:ubiquinone oxidoreductase activity in vitro using bovine heart electron transport particles; assay type: biochemical; settings: for IC50: bovine heart electron transport particles
Protocol: This primary library was screened for inhibitory potency against NADH:ubiquinone oxidoreductase activity as described below. […] As described below, a series of focused libraries were then synthesized using a combination of solid and solution phase chemistry in an attempt to evaluate particular structural sub-regions (denoted I-IV in FIG. 9) of the lead structure, thus allowing structure activity relationships to be developed.
(§1) SAR optimization was carried out on each of the four regions (I-IV) of interest guided by the inhibitory potency for NADH:ubiquinone oxidoreductase activity in vitro using bovine heart electron transport particles (see Singer (Singer, T. P. (1974). In Methods of Biochemical Analysis (Glick, D. ed., Wiley New York), 22, pp. 123-175) for details).
as §1, with “FIG. 15 is a graphical summary of structure activity trends observed for benzopyran-based inhibitors of NADH:ubiquinone oxidoreductase. SAR” for “SAR”, “T.P.” for “T. P.”

Complex I [2] = settings: natural products from Cubé resin; cited from earlier work
Complex I [3] = experiment: Complex I activity in in vitro assays (literature, Fang/Casida); assay type: biochemical; settings: ratio of IC50 values
From the text: Novel lead compounds were identified through the screening of natural product-like combinatorial libraries. Separation of the constituents of this resin provided the major components rotenone (1, FIG. 2) and deguelin (7, FIG. 3) along with minor constituents, including dehydrodeguelin (8), oxadehydrodeguelin (9), lonchocarpusone (10), 4-hydroxylonchocarpene (11), 4-hydroxy-3-methoxylonchocarpene (12), stilbenes 13-15, and isoflavones 16-18 (FIG. 3) among others. […] Despite the diversity in these bridging units, all of the compounds (7-18) inhibited Complex I activity in in vitro assays (Fang, N.; Casida, J. E. J. Nat. Prod. 1999, 62, 205-210; Fang, N.; et al. Chem. Res. Toxicol. 1997, 10, 853-858). […] Given this effect, it was envisioned that screening a benzopyran-based combinatorial library wherein this “bridge” unit was varied (i.e. structure 19, FIG. 3) might lead to the identification of interesting structure activity relationships (SAR), and potentially to new lead compounds in this series.

Chain of NADH:ubiquinone oxidoreductase (Complex I) (P03887 whole entry): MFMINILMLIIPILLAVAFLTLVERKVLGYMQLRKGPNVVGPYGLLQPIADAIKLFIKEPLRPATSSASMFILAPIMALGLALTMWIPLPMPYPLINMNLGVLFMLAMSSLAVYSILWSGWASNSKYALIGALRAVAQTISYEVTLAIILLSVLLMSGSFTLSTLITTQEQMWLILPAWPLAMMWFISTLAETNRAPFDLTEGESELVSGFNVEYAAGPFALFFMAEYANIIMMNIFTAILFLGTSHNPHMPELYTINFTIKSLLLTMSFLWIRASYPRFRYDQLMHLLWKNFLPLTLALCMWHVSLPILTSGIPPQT
Chain of NADH:ubiquinone oxidoreductase (Complex I) (P42026 38-216): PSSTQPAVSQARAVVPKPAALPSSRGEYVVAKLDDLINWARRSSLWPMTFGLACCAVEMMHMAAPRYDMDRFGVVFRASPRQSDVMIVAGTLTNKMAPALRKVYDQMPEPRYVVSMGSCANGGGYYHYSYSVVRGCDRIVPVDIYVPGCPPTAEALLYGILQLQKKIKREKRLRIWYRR
Chain of NADH:ubiquinone oxidoreductase (Complex I) (P17694 34-463): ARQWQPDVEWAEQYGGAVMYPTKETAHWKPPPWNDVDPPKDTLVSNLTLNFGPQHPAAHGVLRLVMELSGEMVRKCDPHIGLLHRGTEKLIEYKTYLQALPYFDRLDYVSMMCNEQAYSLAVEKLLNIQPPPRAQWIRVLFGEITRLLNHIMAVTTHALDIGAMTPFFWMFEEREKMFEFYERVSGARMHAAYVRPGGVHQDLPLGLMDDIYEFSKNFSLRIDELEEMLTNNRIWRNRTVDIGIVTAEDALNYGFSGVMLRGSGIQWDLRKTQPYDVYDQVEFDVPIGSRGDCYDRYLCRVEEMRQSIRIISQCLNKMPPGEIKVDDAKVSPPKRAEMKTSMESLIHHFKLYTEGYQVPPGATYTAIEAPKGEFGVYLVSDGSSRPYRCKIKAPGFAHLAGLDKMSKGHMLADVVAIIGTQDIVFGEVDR

| SMILES | IC50 [1] | further results |
| --- | --- | --- |
| COc1ccc(COC(=O)c2ccc3c(c2)C=CC(C)(C)O3)cc1OC [Compound 42] | 220 nM | – |
| COc1cc(COC(=O)c2ccc3c(c2)C=CC(C)(C)O3)cc(OC)c1OC [Compound 55] | 55 nM | – |
| COc1cc(COC(=O)c2ccc3c(c2)CCC(C)(C)O3)cc(OC)c1OC [Compound 140] | 53 nM | – |
| COc1cc(CC(=O)c2ccc3c(c2)C=CC(C)(C)O3)cc(OC)c1OC [Compound 158] | 39 nM | – |
| C=C(Cc1cc(OC)c(OC)c(OC)c1)c1ccc2c(c1)C=CC(C)(C)O2 [Compound 163] | 19 nM | – |
| COc1cc(CC(=O)c2ccc3c(c2)CCC(C)(C)O3)cc(OC)c1OC [Compound 165] | 24 nM | inhibitory activity ([1]; relative to parent/lead compound): almost twice as active as the parent olefin |
| C=C(Cc1cc(OC)c(OC)c(OC)c1)c1ccc2c(c1)CCC(C)(C)O2 [Compound 167] | 18 nM | – |
| COc1cc(CC(=C(Cl)Cl)c2ccc3c(c2)CCC(C)(C)O3)cc(OC)c1OC [Compound 168] | 2700 nM | – |
| COc1cc(CC(=C(F)F)c2ccc3c(c2)CCC(C)(C)O3)cc(OC)c1OC [Compound 169] | 48 nM | – |
| COc1cc(CSc2ccc3c(c2)C=CC(C)(C)O3)cc(OC)c1OC [Compound 178] | 43 nM | – |
| COc1cc2c(cc1OC)[C@@H]1C(=O)c3ccc4c(c3O[C@@H]1CO2)C=CC(C)(C)O4 [deguelin] | – | IC50 (Complex I [2]): 6.9 nM; fold more active than lonchocarpusone (Complex I [3]): ~500 fold |
| COc1cc(OC)c(C2COc3c(ccc4c3C=CC(C)(C)O4)C2=O)cc1OC (centres unmarked) [lonchocarpusone] | – | IC50 (Complex I [2]): 3300 nM |
